Reference: patent US11091428B2 (HAPLOGEN GMBH, priority 2016, dated 2021)

Target: T1, PLA2G16 (Homo sapiens, UniProt P53816)
T1 construct: Hexa-His (N); made in house; host or cells: E. coli BL21(DE3)
T1 sequence (P53816 1-162): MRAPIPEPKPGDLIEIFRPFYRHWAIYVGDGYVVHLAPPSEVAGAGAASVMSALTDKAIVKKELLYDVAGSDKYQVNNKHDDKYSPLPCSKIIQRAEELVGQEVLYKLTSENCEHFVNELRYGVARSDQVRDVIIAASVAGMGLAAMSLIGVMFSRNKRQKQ
Assay: Enzyme activity assay for PLA2G16 (Red/Green BODIPY PC-A2 fluorescence)
Format: biochemical
Settings: His-tagged PLA2G16, 4 min pre-incubation, 2 nM to 50 μM; read-out: IC50 values of the compounds determined in the enzyme activity assay for PLA2G16
Text: A cDNA for PLA2G16(NM_007069) was custom-synthesized by Genscript (Piscataway, USA) and inserted into a pET-based bacterial expression vector [Moffatt, B. A. and Studier, F. W. (1986) J. Mol. Biol. 189, 113-130; Rosenberg, A. H., Lade, B. N., Chui, D., Lin, S., Dunn, J. J., and Studier, F. W. (1987) Gene 56, 125-135], enabling the expression of N-terminally Hexa-His-tagged PLA2G16. E. coli BL21(DE3) (Agilent) were transformed with pET-His-PLA2G16according to the manufacturer's instructions and plated on Carbenicillin-containing agar plates (final concentration: 100 μg/mL). A single clone was in occulated in 100 mL LB medium supplemented with 100 μg/mL Carbenicillin and the in occulated culture was grown at 37° C. overnight in a rotary shaker. On the next day, the bacterial culture was diluted in LB medium supplemented with 100 μg/mL Carbenicillin (30 mL overnight culture in 800 mL total culture volume). Bacteria were grown at 37° C. until the OD600 reached 0.6. Gene expression was induced by addition of 1 mM isopropyl-β-D-thiogalactopyranosid (IPTG) for 2 h at 18° C. Subsequently, bacteria were harvested by centrifugation (15 min; 10,000×g; 4° C.) and frozen at −80° C. The bacterial pellet was resuspended in Buffer A (50 mM Tris/HCl pH 7.5, 500 mM NaCl, 5% glycerol, 5 mM β-Mercaptoethanol and 1 mM PMSF) and lysed by addition of 1 mg/mL lysozyme (Sigma Aldrich) and 100 μg/mL DNasel-(Roche). The sample was incubated at 30° C. for 30 min to allow lysis to occur. Then, the lysate was cleared by centrifugation (15,000×g, 15 min, 4° C.) and incubated with 1.5 mL Ni-NTA agarose suspension (Qiagen) for 60 min at 4° C. The Ni-NTA agarose was washed with 10 mL Buffer A. Bound protein was eluted by applying a manual gradient of Buffer A supplemented with increasing concentrations of imidazole (Sigma Aldrich; 25/50/75/100/250 mM). Purified fractions were analyzed by SDS-PAGE followed by Coomassie staining to assess the purity.
Activity of the protein was assessed as follows: Red/Green BODIPY® PC-A2 (Invitrogen, 1 mM in DMSO) was mixed with equal volumes of 1,2-Dioleoyl-sn-glycero-3-phosphocholine (DOPC; Sigma Aldrich, 10 mM in Ethanol) and 1,2-Dioleoyl-sn-glycero-3-phospho-rac-(1-glycerol) (DOPG; Sigma Aldrich, 10 mM in Ethanol) and 0.5 volumes of Cholesterol (CHOL; Sigma Aldrich, 10 mM in Ethanol) and vortexed for 5 s. The mixture (Red/Green BODIPY® PC-A2/DOPC/DOPG/CHOL) was diluted 1:91.4 in activity assay buffer (50 mM Tris/HCl pH 8.5, 100 mM NaCl) using a small-orifice pipette tip under constant vortexing. In the following, this preparation will be referred to as the “substrate solution”.
In order to evaluate their inhibitory potential, compounds were dissolved at 10 mM concentration in DMSO and directly spotted into assay plates (Corning, Cat. No. 3576) using acoustic liquid transfer (Labcyte Echo 525). Each compound was spotted at increasing concentrations, ranging from 2 nM to 50 μM (concentration in the final assay volume). 50 μl of PLA2G16 enzyme solution (diluted in activity buffer, supplemented with 5 mM L-Glutathione; Sigma Aldrich) was pre-incubated with compounds for 4 min., followed by addition of 50 μl of substrate solution. Fluorescence was recorded immediately after substrate addition for a total time of 10 min. using a SpectraMax M5 multimode reader (Excitation wavelength: 480 nm, emission wavelength: 530 nm). The relative increase of fluorescence over time is referred to as the enzyme activity. Half-maximal inhibitory concentrations (IC50) were derived by non-linear regression analysis using the drc package in R (R Development. Core Team, 2005).

IC50 [nM] | Compound
< 1000 | COc1ccccc1N(C=O)C(C)C(=O)C(=O)NCc1cccc(C)c1 (stereo not drawn) [FP 87, 3-[N-(2-Methoxyphenyl)formamido]-N-[(3-methylphenyl)methyl]-2-oxo butanamide]
< 1000 | COc1ccccc1N(C=O)C(C)C(=O)C(=O)NCc1ccccc1Cl (stereo not drawn) [FP 86, N-[(2-Chlorophenyl)methyl]-3-[N-(2-methoxyphenyl)formamido]-2-oxobutanamide]
1000 to 10000 | COc1ccccc1N(C=O)C(C)C(=O)C(N)=O (stereo not drawn) [FP 14, 3-[N-(2-Methoxyphenyl)formamido]-2-oxobutanamide]
< 1000 | COc1ccccc1N(C=O)[C@H](C)C(=O)C(=O)NCc1cccc(Cl)c1 (single isomer, unassigned) [FP 2]
< 1000 | CC(C(=O)C(=O)NCc1cccc(Cl)c1)N(C=O)C1CCCCC1 (stereo not drawn) [FP 17, N-[(3-Chlorophenyl)methyl]-3-(N-cyclohexylformamido)-2-oxobutanamide]
< 1000 | COc1ccc(N(C=O)C(C)C(=O)C(=O)NCc2cccc(Cl)c2)cc1 (stereo not drawn) [FP 5, N-[(3-Chlorophenyl)methyl]-3-[N-(4-methoxyphenyl)formamido]-2-oxobutanamide]
< 1000 | COc1ccccc1N(C=O)C(C)C(=O)C(=O)NC(C)c1cccc(Cl)c1 (stereo not drawn) [FP 84, N-[1-(3-Chlorophenyl)ethyl]-3-[N-(2-methoxyphenyl)formamido]-2-oxobutanamide]
< 1000 | CC(C(=O)C(=O)NCc1ccccc1)N(C=O)C1CCCCC1 (stereo not drawn) [FP 113, N-Benzyl-3-(N-cyclohexylformamido)-2-oxobutanamide]
< 1000 | CC(C(=O)C(=O)NCc1cccc(Cl)c1)N(C=O)c1ccccc1 (stereo not drawn) [FP 6, N-[(3-Chlorophenyl)methyl]-2-oxo-3-(N-phenylformamido)butanamide]
< 1000 | COCC(=O)N(C)C(C)C(=O)C(=O)NCC1CCCCC1 (stereo not drawn) [FP 148, N-(Cyclohexylmethyl)-3-(2-methoxy-N-methylacetamido)-2-oxobutanamide]

Further lines, the compound ahead of its results:

Compound | IC50 [nM]
CC(C(=O)C(=O)NCC1CCCCC1)N(C)C(=O)CN(C)C (stereo not drawn) [FP 177, N-(Cyclohexylmethyl)-3-[2-(dimethylamino)-N-methylacetamido]-2-oxobutanamide] | 1000 to 10000
CC(C(=O)C(=O)NCC1CC1)N(CC1CCOCC1)S(C)(=O)=O (stereo not drawn) [FP 223, N-(Cyclopropylmethyl)-3-{N-[(oxan-4-yl)methyl]methanesulfonamido}-2-oxobutanamide] | 10000 to 50000
CC(=O)NCCCOCCCCOCCCNC(=O)C(=O)C1CCC(=O)N1Cc1ccc(Cl)cc1 (stereo not drawn) [FP 329, 2-{1-[(4-Chlorophenyl)methyl]-5-oxopyrrolidin-2-yl}-N-{3-[4-(3-acetamidopropoxy)butoxy]propyl}-2-oxoacetamide] | < 1000
O=C(NC1CC1)C(=O)C1CCC(=O)N1Cc1ccccc1Cl (stereo not drawn) [FP 260, 2-{1-[(2-Chlorophenyl)methyl]-5-oxopyrrolidin-2-yl}-N-cyclopropyl-2-oxoacetamide] | < 1000
COc1ccccc1N(C=O)C(C)C(=O)C(=O)N1CCc2ccc(Cl)cc2C1 (stereo not drawn) [FP 76, N-[4-(7-Chloro-1,2,3,4-tetrahydroisoquinolin-2-yl)-3,4-dioxobutan-2-yl]-N-(2-methoxy-phenyl)formamide] | 10000 to 50000
CC(C)N(C=O)C(C)C(=O)C(=O)NC(C)(C)c1cccc(Cl)c1 (stereo not drawn) [FP 26, N-[2-(3-Chlorophenyl)propan-2-yl]-2-oxo-3-[N-(propan-2-yl)formamido]butanamide] | 1000 to 10000
COc1ccccc1N(C=O)C(C)(C)C(=O)C(=O)NCc1cccc(Cl)c1 [FP 9, N-[(3-Chlorophenyl)methyl]-3-[N-(2-methoxyphenyl)formamido]-3-methyl-2-oxobutanamide] | 1000 to 10000
COc1ccccc1N(C=O)C(C(=O)C(=O)NCc1cccc(Cl)c1)c1ccccc1 (stereo not drawn) [FP 10, N-[(3-Chlorophenyl)methyl]-3-[N-(2-methoxyphenyl)formamido]-2-oxo-3-phenylpropanamide] | 1000 to 10000
CC(C(=O)C(=O)NCC1CC1)N(C=O)C1CCC(F)(F)CC1 (stereo not drawn) [FP 194, N-(Cyclopropylmethyl)-3-[N-(4,4-difluorocyclohexyl)formamido]-2-oxobutanamide] | < 1000
COc1ccccc1N(C=O)C(C)C(=O)C(=O)N(C)Cc1cccc(Cl)c1 (stereo not drawn) [FP 77, N-[(3-Chlorophenyl)methyl]-3-[N-(2-methoxyphenyl)formamido]-N-methyl-2-oxobutanamide] | < 1000
COc1ccccc1N(C=O)CC(=O)C(=O)NCc1cccc(Cl)c1 [FP 19, N-[(3-Chlorophenyl)methyl]-3-[N-(2-methoxyphenyl)formamido]-2-oxopropanamide] | < 1000
COc1ccccc1NC(=O)C(=O)[C@H](C)N(C=O)c1ccccc1OC [FP 82, (3S)—N-(2-Methoxyphenyl)-3-[N-(2-methoxyphenyl)formamido]-2-oxobutanamide] | 1000 to 10000
COc1ccccc1N(C=O)C(C)C(=O)C(=O)NCc1ccccc1 (stereo not drawn) [FP 88, N-Benzyl-3-[N-(2-methoxyphenyl)formamido]-2-oxobutanamide] | < 1000
COc1ccccc1N(C(C)=O)C(C)C(=O)C(=O)NCc1cccc(Cl)c1 (stereo not drawn) [FP 185, N-[(3-Chlorophenyl)methyl]-3-[N-(2-methoxyphenyl)acetamido]-2-oxobutanamide] | < 1000
COc1ccccc1N(C=O)[C@@H](C)C(=O)C(=O)NCc1cccc(Cl)c1 (single isomer, unassigned) [FP 3] | < 1000
CC(C)N(C=O)C(C)C(=O)C(=O)NCc1cccc(Cl)c1 (stereo not drawn) [FP 21, N-[(3-Chlorophenyl)methyl]-2-oxo-3-[N-(propan-2-yl)formamido]butanamide] | < 1000
COc1cccc(CNC(=O)C(=O)C(C)N(C=O)c2ccccc2OC)c1 (stereo not drawn) [FP 85, 3-[N-(2-Methoxyphenyl)formamido]-N-[(3-methoxyphenyl)methyl]-2-oxobutanamide] | < 1000
C[C@@H](O)CNC(=O)C(=O)C1CCC(=O)N1Cc1ccc(Cl)cc1 (stereo partly drawn) [FP 259, 2-{1-[(4-Chlorophenyl)methyl]-5-oxopyrrolidin-2-yl}-N-[(2R)-2-hydroxypropyl]-2-oxoacetamide] | < 1000
CC(NC(=O)c1ccc(F)cc1)C(=O)C(=O)NCC1CC1 (stereo not drawn) [FP 153, N-(Cyclopropylmethyl)-3-[(4-fluorophenyl)formamido]-2-oxobutanamide] | 1000 to 10000
COc1cccc(N(C=O)C(C)C(=O)C(=O)NCc2cccc(Cl)c2)c1 (stereo not drawn) [FP 4, N-[(3-Chlorophenyl)methyl]-3-[N-(3-methoxyphenyl)formamido]-2-oxo butanamide] | < 1000
COc1ccccc1N1C(=O)CC[C@H]1C(=O)C(=O)NCc1cccc(Cl)c1 [FP 139, N-[(3-Chlorophenyl)methyl]-2-[(2S)-1-(2-methoxyphenyl)-5-oxopyrrolidin-2-yl]-2-oxoacetamide] | 1000 to 10000
COc1ccccc1N(C=O)C(C)C(=O)C(=O)NCC1CCOCC1 (stereo not drawn) [FP 103, 3-[N-(2-Methoxyphenyl)formamido]-m[(oxan-4-yl)methyl]-2-oxobutanamide] | < 1000
Cc1cc(C(=O)N(C)C(C)C(=O)C(=O)NCC2CCCCC2)no1 (stereo not drawn) [FP 147, N-(Cyclohexylmethyl)-3-[N-methyl-1-(5-methyl-1,2-oxazol-3-yl)formamido]-2-oxobutanamide] | < 1000
